One series concerns mouse skin tissues. Briefly: Apoptosis in skin tissues isolated from TPA-induced mice (FITC staining). The settings on record: FIGS. 7C to 7E. The series is classed as in vivo. The protocol: (§1) Therefore, in order to verify the degree of the cytotoxicity of the YG-II-6 compounds, their cytotoxicity on human-derived keratinocytes was confirmed by using the WST-1 reagent. In order to verify the effects of the compounds on the expression of proteins associated with apoptosis, the keratinocytes were treated with corresponding concentrations of the respective compound samples and stimulated with TPA for 24 hours, and the expression levels of proteins were confirmed by western blot assay. In addition, human-derived keratinocytes and primary culture skin keratinocytes were treated with the compounds, and after 24 hours, subjected to FITC staining and TUNEL assay, and the skin tissues isolated from TPA-induced mice was subjected to FITC staining.

Series [1] concerns human-derived keratinocytes. Kind of series: Cytotoxicity on human-derived keratinocytes (WST-1 reagent). The class given is cell-based. Particulars: WST-1, FIG. 7A. The protocol: as §1
A general note: Formazan colour is commonly taken as a measure of viable cells.

The next series concerns ERK1/2, p38, JNK. Briefly: MAP kinase phosphorylation in TPA-stimulated skin keratinocytes (western blot). The class given is cell-based, human. The settings on record: FIG. 4. As for the experimental part:
In order to verify the effects of the respective compounds on MAP kinase, skin keratinocytes were treated with the respective compounds for 1 hour, and then stimulated with 400 nM TPA for 15 minutes. The level of phosphorylation was confirmed by western blot assay.

Series [2] concerns NF-κB. Kind of series: Phosphorylation and degradation of IκBα and phosphorylation of NF-κB in TPA-stimulated skin keratinocytes (western blot). The class given is cell-based, human. As for the experimental part:
(§2) Herein, in order to verify the effect of novel synthetic YG-II-6 compounds and their lead compound, phytosphingosine, on phosphorylation and degradation of IκBα, which is a protein that inhibits the activity of NF-κB by forming a complex with NF-κB, skin keratinocytes were pre-treated with respective compounds for 1 hour and then stimulated with 400 nM TPA for 15 minutes and 30 minutes, respectively. In order to verify the phosphorylation of NF-κB and the expression level of NF-κB in the cytoplasm and nucleus, skin keratinocytes were stimulated for 15 minutes and 1 hour, respectively. The results were confirmed by western blot analysis. In addition, the nuclear translocation of NF-κB was confirmed through reaction with antibodies, fluorescent labeling, and direct observation by microscopy. In order to verify the activity of the respective compounds at the transcription stage, cells were transfected with plasmids labeled with NF-κB luciferase reporter, and the luciferase activity was measured by the luciferase assay. In addition, the phosphorylation of IκBα and NF-κB was measured in the PTA-stimulated mouse skin.

In series [3] the test system is NF-κB. Briefly: Nuclear translocation of NF-κB in TPA-stimulated skin keratinocytes (immunostaining, microscopy). The series is classed as cell-based, human. The settings on record: TPA stimulation, FIG. 1B. As for the experimental part: as §2
Series [4] concerns human-derived keratinocytes and primary culture skin keratinocytes. Kind of series: Apoptosis in keratinocytes (FITC staining and TUNEL assay). The class given is cell-based. The settings on record: 24 hours, FIGS. 7C to 7E. As for the experimental part:
as §1

In series [5] the test system is NF-κB. Kind of series: NF-κB luciferase reporter assay, TPA stimulation. The settings on record: FIG. 1C. The series is classed as cell-based. The protocol:
as §2
(A reporter such as luciferase makes a cellular process visible.)

Where [6] appears, read: overall conclusion of section 2-1.

In the case of `CCCCCCCCCCCCCC[C@@H](O)[C@@H](O)[C@@H](N)CO` [phytosphingosine], in the series with mouse skin tissues, the “apoptosis in the mouse skin tissues” value is given as “induced apoptosis”. In addition, the “concentration at which cytotoxicity was shown” value in series [1] was in the range of 5 to 10 µM. The “inhibitory activity on phosphorylation of ERK1/2, p38, and JNK relative to the YG-II-6 compounds” value in the series on ERK1/2, p38, JNK is given as “relatively weaker inhibitory activity”. The “phosphorylation of ERK1/2, p38, and JNK” value in the series with ERK1/2, p38, JNK (skin keratinocytes, 1 hour treatment, 400 nM TPA 15 minutes) is given as “no or little inhibitory effect”. Besides, the “activation of NF-κB (phosphorylation and degradation of IκBα)” value with NF-κB [2] (setting [6]) was “inhibited”. Also, the “phosphorylation of IκBα and NF-κB increased by TPA stimulation” value in the series on NF-κB [2] (skin keratinocytes, 1 hour pre-treatment, 400 nM TPA, FIG. 1A) was “inhibited”. Besides, the “nuclear translocation of NF-κB” value in the series on NF-κB [3] is on record as “inhibited”. Moreover, the “apoptosis in the TPA-stimulated cells” value in series [4] was “induced apoptosis”. Moreover, the “NF-κB luciferase activity increased by TPA stimulation” value with NF-κB [5] was “inhibited”.

For the molecule `CCCCCCCCCCCCCC[C@@H](O)[C@@H](O)[C@H](CO)NC(=O)/C=C/C(=O)O` [fYG-II-6, (E)-4-oxo-4-(((2S,3S,4R)-1,3,4-trihydroxyoctadecan-2-yl)amino)but-2-enoic acid], the “inhibitory effect on the NF-κB activation, fYG-II-6 compared with mYG-II-6” value in the series on NF-κB [2] (setting [6]) is reported as “relatively greater inhibitory effect than mYG-II-6”.

Source of the values: patent US20140357720A1, “NOVEL PHYTOSPHINGOSINE DERIVATIVES, AND A COSMETIC COMPOSITION COMPRISING THE SAME FOR PREVENTING AND AMELIORATING INFLAMMATORY SKIN DISEASES AND HYPERKERATOSIS DISEASES” (THE CATHOLIC UNIVERSITY OF KOREA INDUSTRY-ACADEMIC …, priority 2011, published 2014).
